These results are taken from ChEMBL document CHEMBL1201862, “PubChem BioAssay data set” (2004).

Several values for one entry are separate records, joined by “and”; a condition that tells them apart may be missing. Equal entries are not always repeated.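 In this assay, cells in 96-well plates receive the compound at five concentrations for 48 hours. Endpoints are linearly interpolated between the surrounding concentrations. GI50 marks 50% less growth.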 Activity calls are given as the source filed them. Cut-off read from the data, not from the text of the source: active = GI50 up to about 1.1 µM and inactive = higher.

Some test systems named below: ACHN; COLO 205; HOP-62; IGROV-1; LOX IMVI; MOLT-4; NCI-H226; NCI-H23; OVCAR-5; OVCAR-8; RXF 393; SF-268; SK-MEL-5; SN12C; TK-10; U-251; Hs-578T; MCF7; MDA-N.
What all share (test): inhibition of tumour cell growth, NCI panel, 48 h

On to `Cc1ccc(/C=C/C(=O)c2sc(-n3nc(-c4ccccc4)cc3-c3ccccc3)nc2C)cc1`, for which the GI50 in the assay with ACHN is 65.8 µM (inactive); in the assay on COLO 205 it was > 100 µM (inactive); in the assay with HOP-62, > 100 µM (inactive); with IGROV-1 it was > 100 µM (inactive); with LOX IMVI, > 100 µM (inactive); in the assay on MOLT-4, 8.39 µM (inactive). Also, the GI50 in the assay with NCI-H226, in the assay on NCI-H23, with OVCAR-5, in the assay with OVCAR-8, in the assay on RXF 393 and in the assay with SF-268 was > 100 µM (inactive) each time. The GI50 in the assay on SK-MEL-5 is 71.1 µM (inactive); with SN12C, > 100 µM (inactive); in the assay on TK-10, > 100 µM (inactive); in the assay with U-251, > 100 µM (inactive).

`CC1C(c2ccc(Cl)cc2)c2cc3c(cc2OC1N1CCOCC1)OCO3` (stereo unspecified): the GI50 with ACHN was 35.3 µM (inactive); in the assay on COLO 205, > 100 µM (inactive); in the assay on HOP-62, 79.4 µM (inactive); in the assay on Hs-578T, 23.9 µM (inactive); with IGROV-1, > 100 µM (inactive); in the assay with LOX IMVI, > 100 µM (inactive). Besides, the GI50 in the assay with MCF7, with MDA-N, in the assay on MOLT-4, in the assay with NCI-H23, in the assay on OVCAR-5 and with OVCAR-8 was > 100 µM (inactive) in each case. Moreover, the GI50 was > 100 µM (inactive) in the assay with SF-268, 51.3 µM (inactive) with SK-MEL-5, > 100 µM (inactive) in the assay on SN12C and > 100 µM (inactive) with TK-10.

Regarding `CCOC(=O)C1C(=O)CN2CCc3c([nH]c4ccccc34)C12C(=O)OCC` (stereo unspecified), the GI50 in the assay with ACHN, in the assay with COLO 205, in the assay with HOP-62, in the assay on IGROV-1, in the assay with LOX IMVI and in the assay with MOLT-4 was > 100 µM (inactive) throughout. The GI50 in the assay on NCI-H226, in the assay on NCI-H23, in the assay on OVCAR-5, in the assay with OVCAR-8, with RXF 393 and in the assay on SF-268 was > 100 µM (inactive) throughout. Further, the GI50 with SK-MEL-5, with SN12C, with TK-10 and in the assay with U-251 was > 100 µM (inactive) in each case.

For the compound `N#Cc1nn(-c2ccc(Cl)cc2)c(=N)c2c(N)n3nc(-c4ccccc4)cc3nc12`, the GI50 in the assay on ACHN was 1 µM (active); in the assay with COLO 205 it was 1 µM (active); in the assay on HOP-62 it was 0.485 µM (active); in the assay with IGROV-1, 0.546 µM (active); with LOX IMVI, 0.594 µM (active); in the assay on MOLT-4, 0.294 µM (active). The GI50 in the assay with NCI-H226 is 39.7 µM (inactive); in the assay on NCI-H23, 0.83 µM (active); in the assay with OVCAR-5 it was 1 µM (active); with OVCAR-8, 0.64 µM (active); in the assay with RXF 393 it was 28.2 µM (inactive); in the assay with SF-268, 0.635 µM (active). Besides, the GI50 in the assay with SK-MEL-5 is 0.809 µM (active); in the assay on SN12C it was 1 µM (active); in the assay on TK-10, > 100 µM (inactive); in the assay with U-251 it was 0.556 µM (active).

With `COc1cc(/C=C2/C(=O)N(C(=O)OC(C)C)C(Cc3cc(OC)c(OC)c(C)c3OC)C(=O)N2Cc2ccccc2)c(OC)c(C)c1OC` (stereo unspecified), the GI50 in the assay on ACHN was > 100 µM (inactive); in the assay on COLO 205, 27.2 µM (inactive); in the assay with HOP-62 it was > 100 µM (inactive); with IGROV-1 it was > 100 µM (inactive); in the assay on LOX IMVI, > 100 µM (inactive); with MOLT-4 it was 3.33 µM (inactive). The GI50 in the assay with NCI-H226 was 3.35 µM (inactive); in the assay on NCI-H23, 13.2 µM (inactive); with OVCAR-5, > 100 µM (inactive); with OVCAR-8, 28.2 µM (inactive); in the assay on RXF 393, 20.4 µM (inactive); with SF-268, > 100 µM (inactive). The GI50 in the assay on SK-MEL-5 was 14.4 µM (inactive); in the assay with SN12C, 54.8 µM (inactive); in the assay with TK-10, 35.6 µM (inactive); in the assay with U-251, 86.7 µM (inactive).

Turning to `C=C1C(=O)OC2CC1C(OC(C)=O)C/C(C)=C/CC/C(C)=C\CCC2(C)O` (stereo unspecified), the GI50 in the assay with ACHN is 4.23 µM (inactive) and 2.37 µM (inactive); in the assay on COLO 205 it was 3.98 µM (inactive) and 3.92 µM (inactive); with HOP-62, 15.3 µM (inactive) and 13.6 µM (inactive); in the assay with Hs-578T, 5.87 µM (inactive) and 3.79 µM (inactive); in the assay with LOX IMVI it was 2.46 µM (inactive) and 2.14 µM (inactive); in the assay on MCF7, 3.8 µM (inactive) and 3.74 µM (inactive). Further, the GI50 in the assay on MDA-N is 2.92 µM (inactive) and 4.09 µM (inactive); in the assay with MOLT-4, 2.22 µM (inactive) and 1.88 µM (inactive); with OVCAR-5, 10.9 µM (inactive) and 16.5 µM (inactive); in the assay on OVCAR-8 it was 3.36 µM (inactive) and 3.17 µM (inactive); with RXF 393, 3.67 µM (inactive); in the assay with SF-268, 5.24 µM (inactive) and 5.45 µM (inactive). The GI50 in the assay with SN12C is 4.55 µM (inactive) and 3.09 µM (inactive); in the assay on TK-10 it was 4.37 µM (inactive) and 3.66 µM (inactive); in the assay on U-251, 10.7 µM (inactive) and 10.3 µM (inactive).

For the compound `S=C1/C(=N/c2ccccc2)N(c2ccccc2)/C(=N\c2ccccn2)N1c1ccccc1`, the GI50 is 4.32 µM (inactive) with ACHN; 10.8 µM (inactive) in the assay on COLO 205; 16.3 µM (inactive) with HOP-62; 14.9 µM (inactive) in the assay with Hs-578T; 13.3 µM (inactive) in the assay on IGROV-1; 6.61 µM (inactive) with LOX IMVI. The GI50 is 6.3 µM (inactive) in the assay on MDA-N; > 100 µM (inactive) in the assay on MOLT-4; 18.2 µM (inactive) in the assay with NCI-H226; 12.3 µM (inactive) in the assay on NCI-H23; 16.4 µM (inactive) in the assay on OVCAR-5; 14.5 µM (inactive) in the assay on OVCAR-8. The GI50 was 10 µM (inactive) with RXF 393; 16.6 µM (inactive) with SF-268; 13.9 µM (inactive) with SK-MEL-5; 8.41 µM (inactive) in the assay with SN12C; 15.5 µM (inactive) in the assay with TK-10; 15.8 µM (inactive) with U-251.

For `O=C1CCCc2ccc3c(c21)CC1(Cc2ccccc2C1)C3`, the GI50 in the assay on ACHN is 12.2 µM (inactive); in the assay on COLO 205, 17.2 µM (inactive); with HOP-62, 39.1 µM (inactive); in the assay on Hs-578T, 25.9 µM (inactive); with IGROV-1 it was 50.9 µM (inactive); with LOX IMVI, 30.6 µM (inactive). For the same compound, the GI50 with MCF7 is 57.5 µM (inactive); in the assay on MDA-N it was 19 µM (inactive); in the assay with NCI-H226, 13.3 µM (inactive); with NCI-H23, 36.8 µM (inactive); in the assay on OVCAR-5 it was 31 µM (inactive); in the assay on OVCAR-8 it was 34.2 µM (inactive). Besides, the GI50 is 33.3 µM (inactive) in the assay with RXF 393; 18.5 µM (inactive) in the assay on SK-MEL-5; 26.1 µM (inactive) in the assay on SN12C; 69.5 µM (inactive) in the assay on TK-10; 41.8 µM (inactive) in the assay with U-251.

Consider `CN(C)CC(/C(Cc1ccccc1)=N\NC(=O)C[n+]1ccccc1)c1ccccc1` (stereo unspecified), for which the GI50 with ACHN is > 100 µM (inactive); with COLO 205 it was > 100 µM (inactive); in the assay with HOP-62, > 100 µM (inactive); in the assay on IGROV-1, > 100 µM (inactive); in the assay on LOX IMVI it was > 10 µM (inactive); in the assay on MOLT-4 it was > 100 µM (inactive). Further, the GI50 in the assay with NCI-H226 was > 100 µM (inactive); in the assay on NCI-H23, > 100 µM (inactive); with OVCAR-5 it was > 100 µM (inactive); in the assay on OVCAR-8, 35.1 µM (inactive); in the assay on RXF 393 it was > 100 µM (inactive); with SF-268, > 100 µM (inactive). Also, the GI50 with SK-MEL-5, in the assay on SN12C, in the assay with TK-10 and with U-251 was > 100 µM (inactive) in each case.

On to `O=C1/C(=C/c2ccco2)NC(=S)N1CN1CCOCC1`, for which the GI50 in the assay on ACHN, with COLO 205, with HOP-62, in the assay with Hs-578T, with IGROV-1 and with LOX IMVI was > 100 µM (inactive) in each case. Also, the GI50 in the assay on MCF7, with MDA-N, with MOLT-4, with NCI-H226, with NCI-H23 and with OVCAR-5 was > 100 µM (inactive) in each case. Further, the GI50 with OVCAR-8, in the assay with SF-268, in the assay with SK-MEL-5, with SN12C, in the assay with TK-10 and in the assay with U-251 was > 100 µM (inactive) throughout.

In the case of `CNC(=S)N/N=C1\C(=O)N(CN2CCOCC2)c2ccc([N+](=O)[O-])cc21`, the GI50 with ACHN was 17.5 µM (inactive); with COLO 205, 26.9 µM (inactive); in the assay on HOP-62 it was 14.1 µM (inactive); in the assay on Hs-578T, 25 µM (inactive); in the assay with LOX IMVI it was 17.4 µM (inactive); in the assay with MCF7 it was 20.4 µM (inactive). Also, the GI50 with MDA-N was 67.9 µM (inactive); in the assay with MOLT-4, 43.6 µM (inactive); with NCI-H226, 15.8 µM (inactive); with NCI-H23 it was 17.7 µM (inactive); in the assay on OVCAR-5, 22.8 µM (inactive); in the assay with RXF 393 it was 16.4 µM (inactive). Besides, the GI50 is 20.2 µM (inactive) in the assay with SF-268; 32.5 µM (inactive) in the assay with SK-MEL-5; 16.4 µM (inactive) in the assay on SN12C; 13.3 µM (inactive) in the assay on TK-10; 14.7 µM (inactive) in the assay on U-251.
